Data published in the supplement of paper PMC12463676, “Small-molecule dissolution of stress granules by redox modulation benefits ALS models” (Nature Chemical Biology, 2025).

Experiments:
[1] = compound: NC(=O)CCCCC1CCSS1 [lipoamide]; experiment: thermal stability z-score vs DMSO; higher = more thermally stabilized by treatment; details: HeLa, lipoamide concentration 100 µM
Description: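 Cellular thermal proteome profiling in HeLa cells. Cells were treated with 100 µM lipoamide for 1 h, with or without 1 mM arsenate for a further 1 h, then heated to ten temperatures (37-66.3 °C), and soluble protein was quantified by TMT mass spectrometry relative to 0.1% DMSO controls. The thermal stability score (sum of log2 fold changes minus the abundance score) was transformed to a z-score; mean of n = 3 experiments.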

[2] = compound: O=[As]([O-])(O)O.[K+] [potassium arsenate]; experiment: as above; details: HeLa; arsenate concentration 1 mM
Description: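 Cellular thermal proteome profiling in HeLa cells treated with 1 mM arsenate for 1 h (DMSO pretreatment), heated to ten temperatures (37-66.3 °C). Soluble protein was quantified by TMT mass spectrometry relative to DMSO controls; the thermal stability score was transformed to a z-score; mean of n = 3 experiments.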

[3] = arsenate co-treatment: 1 mM arsenate 1 h
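Also: each temperature applied for 3 min, abundance score taken as mean log2 fold change at the two lowest temperatures, z-score obtained by mean subtraction and division by SD.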

Chain of UniProt P01137 (P01137 whole entry): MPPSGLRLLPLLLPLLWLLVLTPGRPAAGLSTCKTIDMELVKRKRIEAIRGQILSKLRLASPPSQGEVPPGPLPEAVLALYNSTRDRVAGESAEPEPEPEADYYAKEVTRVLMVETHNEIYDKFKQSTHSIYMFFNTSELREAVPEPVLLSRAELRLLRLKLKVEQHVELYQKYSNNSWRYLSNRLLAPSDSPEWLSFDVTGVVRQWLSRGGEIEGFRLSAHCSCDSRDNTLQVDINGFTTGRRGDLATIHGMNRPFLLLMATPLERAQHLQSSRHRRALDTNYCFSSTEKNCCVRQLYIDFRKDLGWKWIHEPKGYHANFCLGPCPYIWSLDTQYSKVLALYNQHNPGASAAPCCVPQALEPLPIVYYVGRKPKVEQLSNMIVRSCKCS
Chain of UniProt Q8IWB9 (Q8IWB9 whole entry): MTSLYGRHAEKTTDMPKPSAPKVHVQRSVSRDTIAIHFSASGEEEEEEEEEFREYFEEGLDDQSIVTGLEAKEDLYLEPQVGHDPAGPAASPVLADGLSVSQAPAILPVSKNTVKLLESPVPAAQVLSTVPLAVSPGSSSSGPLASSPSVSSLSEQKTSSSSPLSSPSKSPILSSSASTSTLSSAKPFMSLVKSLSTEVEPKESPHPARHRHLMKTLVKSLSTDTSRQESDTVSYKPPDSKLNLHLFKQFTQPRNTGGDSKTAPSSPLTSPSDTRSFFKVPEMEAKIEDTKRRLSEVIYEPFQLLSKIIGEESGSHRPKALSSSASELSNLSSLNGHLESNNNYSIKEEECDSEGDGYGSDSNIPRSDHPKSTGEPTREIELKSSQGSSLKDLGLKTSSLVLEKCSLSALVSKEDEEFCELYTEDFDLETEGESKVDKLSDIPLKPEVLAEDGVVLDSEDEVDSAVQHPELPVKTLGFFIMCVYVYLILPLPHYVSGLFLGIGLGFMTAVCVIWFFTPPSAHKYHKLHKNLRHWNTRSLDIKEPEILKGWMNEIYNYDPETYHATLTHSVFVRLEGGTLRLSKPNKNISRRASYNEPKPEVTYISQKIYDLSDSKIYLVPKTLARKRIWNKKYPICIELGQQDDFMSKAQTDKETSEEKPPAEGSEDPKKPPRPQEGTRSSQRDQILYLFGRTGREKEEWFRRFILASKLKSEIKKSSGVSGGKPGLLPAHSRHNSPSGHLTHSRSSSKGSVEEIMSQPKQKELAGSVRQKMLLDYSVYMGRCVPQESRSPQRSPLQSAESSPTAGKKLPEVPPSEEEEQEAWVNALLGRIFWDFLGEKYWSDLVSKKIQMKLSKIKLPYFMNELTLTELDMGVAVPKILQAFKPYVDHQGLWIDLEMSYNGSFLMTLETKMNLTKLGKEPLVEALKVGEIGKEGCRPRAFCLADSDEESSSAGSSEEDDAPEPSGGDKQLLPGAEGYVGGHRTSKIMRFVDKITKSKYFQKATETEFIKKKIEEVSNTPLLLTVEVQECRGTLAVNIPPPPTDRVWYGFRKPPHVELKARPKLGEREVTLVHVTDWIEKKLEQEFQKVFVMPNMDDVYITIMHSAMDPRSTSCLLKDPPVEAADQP
Chain of UniProt Q6YHU6 (Q6YHU6 whole entry): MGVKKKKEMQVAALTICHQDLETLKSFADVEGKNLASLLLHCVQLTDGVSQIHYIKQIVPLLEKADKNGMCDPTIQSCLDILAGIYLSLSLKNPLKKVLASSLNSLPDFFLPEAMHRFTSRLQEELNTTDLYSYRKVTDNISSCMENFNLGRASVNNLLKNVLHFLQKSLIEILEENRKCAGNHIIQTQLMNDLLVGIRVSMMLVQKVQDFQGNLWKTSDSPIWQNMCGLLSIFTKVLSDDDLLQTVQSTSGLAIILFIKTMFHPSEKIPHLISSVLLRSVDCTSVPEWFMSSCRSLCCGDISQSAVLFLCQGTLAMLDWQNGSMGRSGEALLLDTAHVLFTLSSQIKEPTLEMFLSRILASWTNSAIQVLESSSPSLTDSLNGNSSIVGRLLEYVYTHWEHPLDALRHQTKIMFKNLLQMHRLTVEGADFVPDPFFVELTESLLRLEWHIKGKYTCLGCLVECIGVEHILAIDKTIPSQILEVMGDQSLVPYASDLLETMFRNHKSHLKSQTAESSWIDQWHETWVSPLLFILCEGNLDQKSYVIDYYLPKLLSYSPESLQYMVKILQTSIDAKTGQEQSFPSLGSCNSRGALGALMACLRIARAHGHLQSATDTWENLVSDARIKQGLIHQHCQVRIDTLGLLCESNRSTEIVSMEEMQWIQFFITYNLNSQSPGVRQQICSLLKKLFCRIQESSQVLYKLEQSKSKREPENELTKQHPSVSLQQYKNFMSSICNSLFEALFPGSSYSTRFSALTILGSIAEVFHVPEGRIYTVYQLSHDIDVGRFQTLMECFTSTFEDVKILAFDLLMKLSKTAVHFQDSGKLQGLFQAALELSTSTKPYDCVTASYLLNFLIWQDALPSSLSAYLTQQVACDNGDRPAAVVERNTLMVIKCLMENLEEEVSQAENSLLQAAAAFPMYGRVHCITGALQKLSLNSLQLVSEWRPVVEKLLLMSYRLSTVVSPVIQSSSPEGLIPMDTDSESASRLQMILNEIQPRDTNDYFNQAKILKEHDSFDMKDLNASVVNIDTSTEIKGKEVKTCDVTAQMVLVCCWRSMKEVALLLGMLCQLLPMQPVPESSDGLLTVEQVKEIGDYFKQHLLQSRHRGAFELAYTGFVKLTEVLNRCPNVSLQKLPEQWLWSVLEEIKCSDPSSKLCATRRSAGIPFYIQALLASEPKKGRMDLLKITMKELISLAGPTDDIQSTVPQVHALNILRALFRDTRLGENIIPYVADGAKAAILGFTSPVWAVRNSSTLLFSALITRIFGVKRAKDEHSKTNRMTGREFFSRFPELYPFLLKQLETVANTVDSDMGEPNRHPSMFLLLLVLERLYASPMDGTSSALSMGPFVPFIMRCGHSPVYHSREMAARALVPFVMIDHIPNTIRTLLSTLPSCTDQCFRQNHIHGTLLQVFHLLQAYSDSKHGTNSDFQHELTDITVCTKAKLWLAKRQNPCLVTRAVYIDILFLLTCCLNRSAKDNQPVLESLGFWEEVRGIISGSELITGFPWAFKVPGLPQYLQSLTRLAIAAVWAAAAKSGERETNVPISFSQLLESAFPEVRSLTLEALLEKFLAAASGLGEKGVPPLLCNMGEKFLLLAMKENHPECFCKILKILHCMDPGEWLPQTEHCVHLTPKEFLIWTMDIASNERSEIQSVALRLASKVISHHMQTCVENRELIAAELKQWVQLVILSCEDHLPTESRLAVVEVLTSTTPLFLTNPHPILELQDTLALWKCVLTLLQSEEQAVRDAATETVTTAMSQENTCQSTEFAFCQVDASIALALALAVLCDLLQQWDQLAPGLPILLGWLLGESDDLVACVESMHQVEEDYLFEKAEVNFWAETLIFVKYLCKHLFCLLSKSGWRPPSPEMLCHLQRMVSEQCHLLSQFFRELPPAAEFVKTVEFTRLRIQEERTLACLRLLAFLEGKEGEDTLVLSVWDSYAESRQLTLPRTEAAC
Chain of UniProt Q5JUR7 (Q5JUR7 whole entry): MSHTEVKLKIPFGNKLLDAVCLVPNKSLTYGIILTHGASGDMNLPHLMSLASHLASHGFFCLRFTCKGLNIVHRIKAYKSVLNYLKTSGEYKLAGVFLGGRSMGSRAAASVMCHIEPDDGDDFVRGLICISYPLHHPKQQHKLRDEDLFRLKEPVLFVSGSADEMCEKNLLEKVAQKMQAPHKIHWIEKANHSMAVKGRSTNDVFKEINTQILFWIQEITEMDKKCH
Chain of UniProt Q8WUH2 (Q8WUH2 whole entry): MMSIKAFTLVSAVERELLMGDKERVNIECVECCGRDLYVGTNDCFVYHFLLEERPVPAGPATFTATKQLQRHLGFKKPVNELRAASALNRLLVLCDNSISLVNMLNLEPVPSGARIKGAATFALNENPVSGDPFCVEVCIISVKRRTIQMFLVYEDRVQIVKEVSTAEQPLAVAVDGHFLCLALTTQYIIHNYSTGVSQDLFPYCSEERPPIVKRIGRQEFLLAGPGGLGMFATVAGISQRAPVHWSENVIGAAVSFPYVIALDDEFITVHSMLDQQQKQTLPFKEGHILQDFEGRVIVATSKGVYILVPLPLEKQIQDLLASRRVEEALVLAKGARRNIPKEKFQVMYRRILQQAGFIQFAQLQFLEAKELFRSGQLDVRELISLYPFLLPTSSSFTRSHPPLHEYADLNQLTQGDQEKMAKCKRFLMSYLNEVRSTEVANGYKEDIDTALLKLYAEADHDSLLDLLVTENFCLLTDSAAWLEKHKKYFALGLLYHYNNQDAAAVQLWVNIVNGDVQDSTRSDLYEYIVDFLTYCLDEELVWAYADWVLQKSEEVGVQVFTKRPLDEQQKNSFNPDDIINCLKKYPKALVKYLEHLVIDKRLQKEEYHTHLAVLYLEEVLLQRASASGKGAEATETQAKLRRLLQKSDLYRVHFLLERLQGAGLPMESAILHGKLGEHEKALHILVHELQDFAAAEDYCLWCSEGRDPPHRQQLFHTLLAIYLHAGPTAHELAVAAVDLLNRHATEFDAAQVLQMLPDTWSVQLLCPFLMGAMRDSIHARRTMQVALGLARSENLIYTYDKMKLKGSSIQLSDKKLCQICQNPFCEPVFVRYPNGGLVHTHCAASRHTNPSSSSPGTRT
Chain of UniProt Q00059 (Q00059 whole entry): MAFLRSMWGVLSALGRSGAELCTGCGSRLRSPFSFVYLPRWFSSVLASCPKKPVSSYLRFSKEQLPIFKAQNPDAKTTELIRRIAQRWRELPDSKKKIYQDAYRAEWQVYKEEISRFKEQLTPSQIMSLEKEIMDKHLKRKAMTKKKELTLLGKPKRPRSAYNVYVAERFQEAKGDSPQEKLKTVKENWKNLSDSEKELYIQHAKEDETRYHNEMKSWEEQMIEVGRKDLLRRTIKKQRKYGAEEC
Chain of UniProt Q96BS2 (Q96BS2 whole entry): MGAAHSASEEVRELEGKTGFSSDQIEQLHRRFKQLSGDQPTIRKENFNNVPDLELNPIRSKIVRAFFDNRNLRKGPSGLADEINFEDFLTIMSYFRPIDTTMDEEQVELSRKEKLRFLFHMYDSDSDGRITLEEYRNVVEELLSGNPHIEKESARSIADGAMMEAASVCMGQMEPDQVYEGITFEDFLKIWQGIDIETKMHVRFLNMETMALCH

For TELO2 (UniProt Q9Y4R8), the thermal stability z-score [1, 3] was -0.413, the thermal stability z-score ([1]; arsenate co-treatment: none) was -0.306 and the thermal stability z-score [2] was 0.208.
TENM3 (UniProt Q9P273) showed a thermal stability z-score [1, 3] of 0.179, a thermal stability z-score ([1]; arsenate co-treatment: none) of -0.452 and a thermal stability z-score [2] of -0.147.
Target TERF2 (UniProt Q15554) has a thermal stability z-score [1, 3] of -0.0516, a thermal stability z-score ([1]; arsenate co-treatment: none) of -0.042 and a thermal stability z-score [2] of 0.1.
In the case of TERF2IP (UniProt Q9NYB0), the thermal stability z-score [1, 3] is reported as -0.302, the thermal stability z-score ([1]; arsenate co-treatment: none) is reported as 0.33 and the thermal stability z-score [2] is reported as -0.131.
For TES (UniProt Q9UGI8), the thermal stability z-score [1, 3] was 0.0136, the thermal stability z-score ([1]; arsenate co-treatment: none) was -0.287 and the thermal stability z-score [2] was -4.89.
TESC (UniProt Q96BS2) was tested, and the thermal stability z-score [1, 3] was 0.565, the thermal stability z-score ([1]; arsenate co-treatment: none) was 0.315 and the thermal stability z-score [2] was 0.846.
In the case of TEX2 (UniProt Q8IWB9), the thermal stability z-score [1, 3] is reported as 0.11, the thermal stability z-score ([1]; arsenate co-treatment: none) is reported as -0.0212 and the thermal stability z-score [2] is reported as 0.0716.
With TEX30 (UniProt Q5JUR7) the thermal stability z-score [1, 3] was 0.373, the thermal stability z-score ([1]; arsenate co-treatment: none) was -0.174 and the thermal stability z-score [2] was -0.411.
Work on TEX264 (UniProt Q9Y6I9) yielded a thermal stability z-score [1, 3] of -0.151, a thermal stability z-score ([1]; arsenate co-treatment: none) of -0.929 and a thermal stability z-score [2] of -0.568.
Work on TFAM (UniProt Q00059) yielded a thermal stability z-score [1, 3] of -0.198, a thermal stability z-score ([1]; arsenate co-treatment: none) of -0.126 and a thermal stability z-score [2] of -0.121.
In the case of TFAP2A (UniProt P05549), the thermal stability z-score [1, 3] is reported as 0.831, the thermal stability z-score ([1]; arsenate co-treatment: none) is reported as 0.868 and the thermal stability z-score [2] is reported as 0.566.
Target TFAP4 (UniProt Q01664) has a thermal stability z-score [1, 3] of 0.339, a thermal stability z-score ([1]; arsenate co-treatment: none) of 0.809 and a thermal stability z-score [2] of 1.02.
Target TFB1M (UniProt Q8WVM0) has a thermal stability z-score [1, 3] of -0.367, a thermal stability z-score ([1]; arsenate co-treatment: none) of 0.233 and a thermal stability z-score [2] of 0.0871.
Target TFB2M (UniProt Q9H5Q4) has a thermal stability z-score [1, 3] of -0.3, a thermal stability z-score ([1]; arsenate co-treatment: none) of -0.261 and a thermal stability z-score [2] of 0.215.
TFCP2 (UniProt Q12800) gave a thermal stability z-score [1, 3] of 0.151, a thermal stability z-score ([1]; arsenate co-treatment: none) of 0.69 and a thermal stability z-score [2] of 0.147.
With TFDP1 (UniProt Q14186) the thermal stability z-score [1, 3] was -0.00506, the thermal stability z-score ([1]; arsenate co-treatment: none) was 0.0652 and the thermal stability z-score [2] was -0.0388.
Target TFG (UniProt Q92734) has a thermal stability z-score [1, 3] of 0.607, a thermal stability z-score ([1]; arsenate co-treatment: none) of 0.76 and a thermal stability z-score [2] of 0.134.
TFIP11 (UniProt Q9UBB9) gave a thermal stability z-score [1, 3] of -0.0949, a thermal stability z-score ([1]; arsenate co-treatment: none) of -0.0621 and a thermal stability z-score [2] of -0.187.
With TFRC (UniProt P02786) the thermal stability z-score [1, 3] was 0.193, the thermal stability z-score ([1]; arsenate co-treatment: none) was 0.202 and the thermal stability z-score [2] was 0.144.
Target TGFB1 (UniProt P01137) has a thermal stability z-score [1, 3] of -2.9, a thermal stability z-score ([1]; arsenate co-treatment: none) of -3.34 and a thermal stability z-score [2] of -0.306.
TGFBR1 (UniProt P36897) was tested, and the thermal stability z-score [1, 3] was -0.829, the thermal stability z-score ([1]; arsenate co-treatment: none) was 0.245 and the thermal stability z-score [2] was -0.162.
With TGFBRAP1 (UniProt Q8WUH2) the thermal stability z-score [1, 3] was 0.0561, the thermal stability z-score ([1]; arsenate co-treatment: none) was -0.0483 and the thermal stability z-score [2] was -0.0443.
Target TGIF1 (UniProt Q15583) has a thermal stability z-score [1, 3] of -0.557, a thermal stability z-score ([1]; arsenate co-treatment: none) of -0.274 and a thermal stability z-score [2] of -0.203.
Work on TGOLN2 (UniProt O43493) yielded a thermal stability z-score [1, 3] of 0.152, a thermal stability z-score ([1]; arsenate co-treatment: none) of 0.0237 and a thermal stability z-score [2] of -0.275.
TGS1 (UniProt Q96RS0) showed a thermal stability z-score [1, 3] of -0.109, a thermal stability z-score ([1]; arsenate co-treatment: none) of -0.175 and a thermal stability z-score [2] of 1.17.
With TH1L|NELFCD the thermal stability z-score [1, 3] was -0.0628, the thermal stability z-score ([1]; arsenate co-treatment: none) was -0.0836 and the thermal stability z-score [2] was 0.0938.
THADA (UniProt Q6YHU6) was tested, and the thermal stability z-score [1, 3] was -0.42, the thermal stability z-score ([1]; arsenate co-treatment: none) was -0.349 and the thermal stability z-score [2] was -0.361.
THBS1 (UniProt P07996) gave a thermal stability z-score [1, 3] of -0.588, a thermal stability z-score ([1]; arsenate co-treatment: none) of -0.841 and a thermal stability z-score [2] of -0.825.
THEM4 (UniProt Q5T1C6) gave a thermal stability z-score [1, 3] of -0.175, a thermal stability z-score ([1]; arsenate co-treatment: none) of -0.235 and a thermal stability z-score [2] of -0.626.
THEM6 (UniProt Q8WUY1) showed a thermal stability z-score [1, 3] of 0.308, a thermal stability z-score ([1]; arsenate co-treatment: none) of 0.289 and a thermal stability z-score [2] of 0.723.
THG1L (UniProt Q9NWX6) was tested, and the thermal stability z-score [1, 3] was 0.578, the thermal stability z-score ([1]; arsenate co-treatment: none) was 0.85 and the thermal stability z-score [2] was 0.463.
For THNSL1 (UniProt Q8IYQ7), the thermal stability z-score [1, 3] was 0.202, the thermal stability z-score ([1]; arsenate co-treatment: none) was -0.188 and the thermal stability z-score [2] was 0.0365.
Work on THOC1 (UniProt Q96FV9) yielded a thermal stability z-score [1, 3] of 0.298, a thermal stability z-score ([1]; arsenate co-treatment: none) of -0.0559 and a thermal stability z-score [2] of -0.258.
In the case of THOC2 (UniProt Q8NI27), the thermal stability z-score [1, 3] is reported as -0.212, the thermal stability z-score ([1]; arsenate co-treatment: none) is reported as -0.102 and the thermal stability z-score [2] is reported as 0.273.
THOC3 (UniProt Q96J01) gave a thermal stability z-score [1, 3] of 0.252, a thermal stability z-score ([1]; arsenate co-treatment: none) of 0.058 and a thermal stability z-score [2] of -0.683.
